Tested on: NCI-H23 complex spheroids with HUVEC/MSC, viability
Assay: Anticancer human tumor NCI-H23 cell line growth inhibition [RAS];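 further: spheroids exposed to compound for 7 days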;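 on viability, T/C: 100% = DMSO vehicle control viability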
Conditions: for IC50: curve of first compound; for viability, T/C: stronger effect = lower value; active means viability on the fitted dose curve at most 10% of control; inactive means the rest
How it was run: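 Multi-cell-type spheroids: tumor cells plus HUVEC endothelial cells and mesenchymal stem cells. RAS-pathway inhibitors were combined with targeted agents, each dosed in half-log steps down from clinical Cmax, or from 10 microM when Cmax was unknown.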

[1] = second compound 0.000949 µM, first compound 0.0316 µM
[2] = second compound 0.000949 µM, first compound 0.1 µM
[3] = second compound 0.000949 µM, first compound 0.316 µM
[4] = second compound 0.000949 µM, first compound 1 µM
[5] = second compound 0.000949 µM, first compound 3.16 µM
[6] = second compound 0.000949 µM, first compound 10 µM
[7] = second compound 0.003 µM, first compound 0.0316 µM
[8] = second compound 0.003 µM, first compound 0.1 µM
[9] = second compound 0.003 µM, first compound 0.316 µM
[10] = second compound 0.003 µM, first compound 1 µM
[11] = second compound 0.003 µM, first compound 3.16 µM
[12] = second compound 0.003 µM, first compound 10 µM
[13] = second compound 0.00949 µM, first compound 0.0316 µM
[14] = second compound 0.00949 µM, first compound 0.1 µM
[15] = second compound 0.00949 µM, first compound 0.316 µM
[16] = second compound 0.00949 µM, first compound 1 µM
[17] = second compound 0.00949 µM, first compound 3.16 µM
[18] = second compound 0.00949 µM, first compound 10 µM
[19] = second compound 0.03 µM, first compound 0.0316 µM
[20] = second compound 0.03 µM, first compound 0.1 µM
[21] = second compound 0.03 µM, first compound 0.316 µM
[22] = second compound 0.03 µM, first compound 1 µM
[23] = second compound 0.03 µM, first compound 3.16 µM
[24] = second compound 0.03 µM, first compound 10 µM
[25] = second compound 0.0949 µM, first compound 0.0316 µM
[26] = second compound 0.0949 µM, first compound 0.1 µM
[27] = second compound 0.0949 µM, first compound 0.316 µM
[28] = second compound 0.0949 µM, first compound 1 µM
[29] = second compound 0.0949 µM, first compound 3.16 µM
[30] = second compound 0.0949 µM, first compound 10 µM
[31] = second compound 0.3 µM, first compound 0.0316 µM
[32] = second compound 0.3 µM, first compound 0.1 µM
[33] = second compound 0.3 µM, first compound 0.316 µM
[34] = second compound 0.3 µM, first compound 1 µM
[35] = second compound 0.3 µM, first compound 3.16 µM
[36] = second compound 0.3 µM, first compound 10 µM

Cc1nc(N2CCC3(CC2)COC(C)C3N)c(CO)nc1Sc1ccnc(N)c1Cl (stereo unspecified) + CCn1c(-c2cc(N3CCN(C)CC3)cnc2C(C)OC)c2c3cc(ccc31)-c1csc(n1)CC(NC(=O)C1CC1C)C(=O)N1CCCC(N1)C(=O)OCC(C)(C)C2
< 31.6 nM: IC50 (second compound 0.000949 µM) | IC50 (second compound 0.003 µM) | IC50 (second compound 0.00949 µM) | IC50 (second compound 0.03 µM) | IC50 (second compound 0.0949 µM) | IC50 (second compound 0.3 µM)
active: viability, T/C [18] 7.55% | viability, T/C [24] 7.44% | viability, T/C [29] 7.63% | viability, T/C [30] 7.62% | viability, T/C [35] 7.11% | viability, T/C [36] 5.57%
inactive: viability, T/C [1] 40.2% | viability, T/C [2] 33.2% | viability, T/C [3] 22.9% | viability, T/C [4] 26.2% | viability, T/C [5] 18.7% | viability, T/C [6] 13.7% | viability, T/C [7] 35% | viability, T/C [8] 25.4% | viability, T/C [9] 21.2% | viability, T/C [10] 21% | viability, T/C [11] 15% | viability, T/C [12] 10.5% | viability, T/C [13] 30.2% | viability, T/C [14] 19.9% | viability, T/C [15] 20% | viability, T/C [16] 17.1% | viability, T/C [17] 11.5% | viability, T/C [19] 24.4% | viability, T/C [20] 22.5% | viability, T/C [21] 18% | viability, T/C [22] 14.1% | viability, T/C [23] 8.53% | viability, T/C [25] 17.3% | viability, T/C [26] 17.8% | viability, T/C [27] 14.6% | viability, T/C [28] 10.8% | viability, T/C [31] 17.4% | viability, T/C [32] 17.8% | viability, T/C [33] 12.3% | viability, T/C [34] 9.93%

NC1c2ccccc2OC12CCN(c1cnc3c(N4CCCc5ncccc54)n[nH]c3n1)CC2 (stereo unspecified) + CCn1c(-c2cc(N3CCN(C)CC3)cnc2C(C)OC)c2c3cc(ccc31)-c1csc(n1)CC(NC(=O)C1CC1C)C(=O)N1CCCC(N1)C(=O)OCC(C)(C)C2
active: viability, T/C [6] 7.21% | viability, T/C [10] 8.99% | viability, T/C [11] 8.38% | viability, T/C [12] 5.79% | viability, T/C [15] 9.85% | viability, T/C [16] 7.3% | viability, T/C [17] 5.1% | viability, T/C [18] 5.27% | viability, T/C [21] 8.98% | viability, T/C [22] 5.94% | viability, T/C [23] 4.97% | viability, T/C [24] 5.95% | viability, T/C [26] 9.83% | viability, T/C [27] 6.34% | viability, T/C [28] 5.78% | viability, T/C [29] 4.29% | viability, T/C [30] 6.19% | viability, T/C [32] 7.93% | viability, T/C [33] 6.42% | viability, T/C [34] 4.7% | viability, T/C [35] 4.58% | viability, T/C [36] 5.26%
inactive: viability, T/C [1] 29% | viability, T/C [2] 22.1% | viability, T/C [3] 15.2% | viability, T/C [4] 15.1% | viability, T/C [5] 10.4% | viability, T/C [7] 23.4% | viability, T/C [8] 15.7% | viability, T/C [9] 12.3% | viability, T/C [13] 19.4% | viability, T/C [14] 13.9% | viability, T/C [19] 15.7% | viability, T/C [20] 12.8% | viability, T/C [25] 12.9% | viability, T/C [31] 11%
< 31.6 nM: IC50 (second compound 0.000949 µM) | IC50 (second compound 0.003 µM) | IC50 (second compound 0.00949 µM) | IC50 (second compound 0.03 µM) | IC50 (second compound 0.0949 µM) | IC50 (second compound 0.3 µM)

Nc1ccn(C2OC(CO)C(O)C2(F)F)c(=O)n1 (stereo unspecified) + CCn1c(-c2cc(N3CCN(C)CC3)cnc2C(C)OC)c2c3cc(ccc31)-c1csc(n1)CC(NC(=O)C1CC1C)C(=O)N1CCCC(N1)C(=O)OCC(C)(C)C2
< 3.16 nM: IC50 (second compound 0.000949 µM) | IC50 (second compound 0.003 µM) | IC50 (second compound 0.00949 µM) | IC50 (second compound 0.03 µM) | IC50 (second compound 0.0949 µM) | IC50 (second compound 0.3 µM)
inactive: viability, T/C (second compound 0.000949 µM, first compound 0.00316 µM) 16.9% | viability, T/C (second compound 0.003 µM, first compound 0.00316 µM) 12.9% | viability, T/C (second compound 0.00949 µM, first compound 0.00316 µM) 12.6% | viability, T/C (second compound 0.03 µM, first compound 0.00316 µM) 12% | viability, T/C (second compound 0.0949 µM, first compound 0.00316 µM) 12.2% | viability, T/C (second compound 0.3 µM, first compound 0.00316 µM) 15.5%
active: viability, T/C (second compound 0.000949 µM, first compound 0.01 µM) 2.1% | viability, T/C [1] 2.03% | viability, T/C [2] 1.87% | viability, T/C [3] 1.82% | viability, T/C [4] 1.3% | viability, T/C (second compound 0.003 µM, first compound 0.01 µM) 1.96% | viability, T/C [7] 1.42% | viability, T/C [8] 1.52% | viability, T/C [9] 2.04% | viability, T/C [10] 1.24% | viability, T/C (second compound 0.00949 µM, first compound 0.01 µM) 1.87% | viability, T/C [13] 2.05% | viability, T/C [14] 1.74% | viability, T/C [15] 2.15% | viability, T/C [16] 2.22% | viability, T/C (second compound 0.03 µM, first compound 0.01 µM) 2.82% | viability, T/C [19] 2.27% | viability, T/C [20] 2.33% | viability, T/C [21] 1.56% | viability, T/C [22] 1.99% | viability, T/C (second compound 0.0949 µM, first compound 0.01 µM) 3.4% | viability, T/C [25] 3.37% | viability, T/C [26] 2.4% | viability, T/C [27] 2.14% | viability, T/C [28] 2.59% | viability, T/C (second compound 0.3 µM, first compound 0.01 µM) 5.87% | viability, T/C [31] 3.63% | viability, T/C [32] 3.14% | viability, T/C [33] 2.91% | viability, T/C [34] 3.48%

From PubChem BioAssay AID2060885 (Molecular Pharmacology Branch, DTP, NCI, 2025)
